Results on three molecules are retold here after patent US9365540B2, “Benzimidazole derivatives as MCH receptor antagonists” (Takeda Pharmaceutical Company Limited, priority 2012, dated 2016).

The subject of one data set is HepG2 cells. Nature of the data set: PLsis (phospholipidosis) inducing potential, NBD-PE uptake. The note with it: 24 hr exposure, relative value to 10 μM Amiodarone, maximum value per unit concentration. The format is cell-based. How it is done: Evaluation of PLsis Inducing Potential
DMEM medium, L-glutamine, penicillin-streptomycin, pyruvic acid, and N-(7-nitrobenz-2-oxa-1,3-diazol-4-yl)-1,2-hexadecanoyl-sn-glycero-3-phosphoethanolamine triethylammonium salt (NBD-PE) were purchased from Invitrogen Corporation. As bovine serum albumin (BSA), a product of Thermo Trace Ltd. (Melbourne, Australia) was used, and as Amiodarone, a product of ICN (Costa Mesa, Calif.) was used. A test compound was used in the form of a 10 mM DMSO solution.
FBS was added at a final concentration of 5 vol % to DMEM medium supplemented with L-glutamine, pyruvic acid and penicillin-streptomycin and subjected to the experiment. Culture was performed using 5% carbon dioxide gas-95% air as a gas phase in a CO2 incubator at 37° C. HepG2 cells were suspended in a culture medium at 50×10^4 cells/mL, plated in a 96 well plate at 50 μL/well and precultured for 24 hr. After preculture, the culture medium was removed, a culture medium containing 60 μM NBD-PE was added at 50 μL/well, and a culture medium containing 0.6 μM or 20 μM test compounds were each added at 50 μL/well to HepG2 cells, and the cells were cultured for 24 hr. As a positive control, Amiodarone was used at a final concentration of 10 μM.
After exposure to the test compound for 24 hr, the fluorescence intensity (Ex. 485 nm, Em. 538 nm) of NBD-PE uptaken by the cells was measured by a fluorometer. The measurement value with addition of 0 μM test compound solution was subtracted as a blank, a relative value to the measurement 5 value with addition of 10 μM Amiodarone was calculated, and the maximum value per unit concentration of the test compound was obtained as a phospholipidosis (PLsis) inducing potential.

Another data set has as its target T1, human MCHR1 (Homo sapiens, UniProt Q99705).
T1 construct: expressed in transfected cells; host or cells: CHO dhfr- cells, clone #4
Nature of the data set: MCH receptor 1 antagonistic activity, Ca2+ mobilization assay. In kind it is cell-based. The note with it: CHO, test compound 0.1 μM; human MCHR1-expressing CHO cells (clone #4); ligand MCH(4-19) 2 nM; read-out: Inhibitory rate % (0.1 μM). The essentials: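 CHO dhfr− cells stably expressing human MCHR1 (clone #4) were used in a fluorometric Ca2+ mobilization assay. Test compounds were run at 0.1 μM, with antagonism expressed as percent inhibition.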

Data set [1] concerns the target T2, human MCH receptor 1 (MCHR1) (Homo sapiens, UniProt Q99705).
T2 construct: expressed in transfected cells; host or cells: CHO cell clone 57 (membrane fraction)
Description: human MCH receptor 1 (MCHR1) competitive binding assay with [125I]-MCH(4-19). The note with it: test compound 0.1 μM, human MCHR1-expressing CHO cell membrane fraction, read-out: Binding inhibition rate % (0.1 μM). A digest of the protocol: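 Percent binding inhibition by 0.1 μM test compound, corrected for nonspecific binding defined with unlabeled MCH(1-19), is read by scintillation after filtration onto PEI-treated GF/C filters. The reaction runs 1 hr at room temperature with [125I]-MCH(4-19) and human MCHR1-CHO cell membranes in Tris-HCl pH 7.5 buffer containing EDTA and protease inhibitors.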

T2 sequence (Q99705 whole entry): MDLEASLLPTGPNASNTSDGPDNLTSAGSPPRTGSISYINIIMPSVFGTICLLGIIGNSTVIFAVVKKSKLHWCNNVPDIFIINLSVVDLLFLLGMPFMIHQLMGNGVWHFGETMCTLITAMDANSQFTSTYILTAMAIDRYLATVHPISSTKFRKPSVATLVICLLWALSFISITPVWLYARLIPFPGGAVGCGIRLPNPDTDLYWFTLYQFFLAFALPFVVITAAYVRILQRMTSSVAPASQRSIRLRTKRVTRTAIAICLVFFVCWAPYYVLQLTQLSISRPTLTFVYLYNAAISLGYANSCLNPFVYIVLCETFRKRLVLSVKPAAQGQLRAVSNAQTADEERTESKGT
T1 sequence (Q99705 whole entry): as above

With `Cn1c(C2CC2)nc2ccc(-n3ccc(OCc4ccc(F)cc4)cc3=O)cc21` [Example 2, 1-(2-Cyclopropyl-1-methyl-1H-benzimidazol-6-yl)-4-((4-fluorobenzyl)oxy)pyridin-2(1H)-one], the PLsis inducing potential with HepG2 cells came to 2.2. Besides, the inhibition at 0.1 µM is 99% at human MCHR1 and 80% in data set [1].

`CCc1nc2ccc(-n3ccc(OCc4ccc(F)cc4)cc3=O)cc2n1C` [Example 63, 1-(2-Ethyl-1-methyl-1H-benzimidazol-6-yl)-4-((4-fluorobenzyl)oxy)pyridin-2(1H)-one] yielded a PLsis inducing potential with HepG2 cells of 1.6. In addition, the inhibition at 0.1 µM on human MCHR1 came out at 100%; in data set [1] it was 74%.

In the case of `Cc1nc2ccc(-n3ccc(OCc4ccc(F)cc4)cc3=O)cc2n1C` [Example 254, 1-(1,2-Dimethyl-1H-benzimidazol-6-yl)-4-((4-fluorobenzyl)oxy)pyridin-2(1H)-one], in the data set on HepG2 cells, the PLsis inducing potential was determined as 1.7. Moreover, the inhibition at 0.1 µM was found to be 95% on human MCHR1 and 57% in data set [1].
